Data on six compounds can be found in paper PMC11897524 (Frontiers in Pharmacology, 2025).

Each structure is given as a SMILES string.

Experiment [1] has as its target T1, BRD4 (Homo sapiens, UniProt O60885). Put plainly: AlphaScreen BRD4 binding inhibition assay. The arrangement: purchased Abcam. A general note: In Alpha technology, singlet oxygen from a donor bead excites a nearby acceptor bead.
Description: The inhibitory effect was measured through the previously described the amplified luminescent proximity homogeneous assay (AlphaScreen) ([Feng et al., 2018]). First, the compounds were diluted twofold to different concentrations (64, 32, 16, 8, 4, 2, 1, 0.5, 0.25, 0.125, 0.0625 nM) and each was incubated with BRD4 protein at a concentration of 12.5 nM for 15 min at room temperature. Biotin-labeled peptide (SGRG-K(Ac)-GG-K(Ac)-GLG-K(Ac)-GGA-K (Ac)-RHRKVGG-K-biotin) was added for 10 min, followed by streptavidin donor beads and AlphaScreen nickel chelate acceptor and incubation for 1h. All components were incubated in a total volume of 20 μL assay buffer containing 20 mM HEPES, pH 7.4, 0.1% bovine serum albumin (BSA, w/v), 0.01% Triton X-100, and 1 mM DTT. Finally, counts were measured by EnVision (Perkin Elmer, Hopkinton, MA) and analyzed by Graphpad Prism 7.0 software.
The target in experiment [2] is T2, STAT3 (Homo sapiens, UniProt P40763). Put plainly: STAT3 binding inhibition assay. On the set-up: purchased Abcam.
Experiment [3] deals with T1, BRD4. As to the kind of experiment: Microscale thermophoresis (MST) assay. The experiment is classed as binding. Conditions: MST. The arrangement: purchased Abcam. A general note: Microscale thermophoresis detects binding through changes in fluorescence in a small temperature gradient.
Experiment [4] addresses T2, STAT3. Put plainly: Microscale thermophoresis (MST) assay. The settings on record: MST. On the set-up: purchased Abcam. It is filed as binding. The method, then: The MST experiments were performed using the Monolith NT.115 instrument. BRD4 and STAT3 proteins were labeled with the Lys labeling kit at the final concentration of 100 nM. The compounds, previously suspended in 100% DMSO, were diluted in a buffer containing 20 mM Tris·HCl (pH 7.5), 100 mM NaCl, and 3 mM DTT, achieving a final DMSO concentration of 5%. The compounds were gradient-diluted in 1:1 dilution and starting from 100 μM. The samples were loaded into MST-standard glass capillaries. All the measurements were performed in triplicate using automatically assigned 50% MST power and 20% LED power. Data analysis was performed using GraphPad Prism 7.0 software.

The subject of experiment [5] is BRD4. On the set-up: method as in Boi et al., 2015. Conditions: BRD4 inhibitor; ref Boi et al., 2015; read-out: IC50 value as reported; cited from earlier work.
The next experiment relates to CAKI-2 cells. As to the kind of experiment: MTT cytotoxicity assay. It is filed as cell-based, human. Conditions: Homo sapiens, CAKI-2, cell growth, 48 h treatment, read-out: IC50 (μM) ± SD CAKI-2. The procedure:
Human normal renal cortical proximal tubular epithelial cell line HK-2 and human renal carcinoma cell lines CAKI-2, SLR-23, 769-P, A704 and RCC4 were previously purchased from the American Type Culture Collection (ATCC, Manassas, VA, USA) or the European Collection of Cell Cultures (ECACC, Salisbury, United Kingdom). HK2, A704, and RCC4 cells were maintained in high glucose DMEM supplemented with 10% FBS and 1% penicillin/streptomycin. SLR-23 and […] cells were cultured in RPMI-1640 medium with 10% FBS and 1% penicillin/streptomycin. CAKI-2 cells were maintained in McCoy’s 5A medium supplemented with 10% FBS and 1% penicillin/streptomycin. All the cell lines were cultured at 37°C in a humidified atmosphere of 5% CO2 and 95% air.
The effect of hit compounds on cytotoxicity was determined as previously reported ([Ding et al., 2020]). In brief, cells treated with the tested compounds were added with MTT reagent to form formazan crystals, and then the optical density (OD) values at 570 nm were determined after the crystals were dissolved in DMSO. […] Next, the values of IC50 of the selected compounds against more RCC cell lines were determined. The 5 × 10^3 cells in 100 μL culture medium were injected into each well of a 96-well plate and cultured overnight. Add different concentrations of compounds and incubate for 48 h. Then 100 μL of MTT (0.5 mg/mL) solution was added to the 96-well plate and maintained at 37°C for 4 h. Finally, 200 μL of DMSO was added and shaken for 10 min. The OD values at 570 nm were determined by a Synergy 4 microplate reader.

T2 sequence (P40763 whole entry): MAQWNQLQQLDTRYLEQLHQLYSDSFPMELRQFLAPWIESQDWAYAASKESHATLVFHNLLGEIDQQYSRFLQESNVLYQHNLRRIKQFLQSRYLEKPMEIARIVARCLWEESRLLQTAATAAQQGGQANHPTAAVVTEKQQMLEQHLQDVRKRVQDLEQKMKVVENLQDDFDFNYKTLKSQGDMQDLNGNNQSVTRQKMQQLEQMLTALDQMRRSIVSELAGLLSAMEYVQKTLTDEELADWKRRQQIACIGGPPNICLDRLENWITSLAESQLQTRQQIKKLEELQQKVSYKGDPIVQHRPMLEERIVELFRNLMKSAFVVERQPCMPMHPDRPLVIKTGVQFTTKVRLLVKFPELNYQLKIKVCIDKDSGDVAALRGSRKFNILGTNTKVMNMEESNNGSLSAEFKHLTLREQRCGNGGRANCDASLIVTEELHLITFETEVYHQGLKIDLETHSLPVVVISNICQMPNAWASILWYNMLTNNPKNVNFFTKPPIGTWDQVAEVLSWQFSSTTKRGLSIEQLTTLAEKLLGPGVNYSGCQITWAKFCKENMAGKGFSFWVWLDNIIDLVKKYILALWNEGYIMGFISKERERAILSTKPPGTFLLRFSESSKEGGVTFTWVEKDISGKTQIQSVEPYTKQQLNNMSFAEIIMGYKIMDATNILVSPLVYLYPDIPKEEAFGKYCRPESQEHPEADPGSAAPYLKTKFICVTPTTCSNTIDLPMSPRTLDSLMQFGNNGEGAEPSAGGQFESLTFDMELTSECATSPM

As for `CCS(=O)(=O)Cc1cnc(Oc2c(F)cc(F)cc2OC[C@@H]2CCC[C@H](COc3ccc(/C=C/c4cc(OC)cc(OC)c4)cc3)N2)c(-c2cc(C)c3c(=O)[nH]ccn23)c1` [BST-3], the results for the half-inhibitory concentration (IC50) at BRD4 [1] and at STAT3 [2] were 7.09 ± 0.53 nM and 11.3 ± 0.95 nM, respectively. Moreover, the dissociation constant (Kd) (commonly the free concentration of one partner at which half of the binding sites on the other are occupied at equilibrium, for simple one-to-one binding) at BRD4 [3] stood at 5.37 ± 0.49 nM; on STAT3 [4], 8.42 ± 0.38 nM.

Consider `Cc1sc2c(c1C)C(c1ccc(Cl)cc1)=N[C@@H](CC(=O)Nc1ccc(O)cc1)c1nnc(C)n1-2` [OTX-015], for which, in the experiment with BRD4 [5], the half-inhibitory concentration (IC50) (commonly the concentration at which inhibition is half-maximal) is roughly 92 nM.

Take `COc1cc(OC)c2c(=O)[nH]c(-c3cc(C)c(OCCO)c(C)c3)nc2c1` [RVX-208, reference compound]: the IC50 in the experiment on CAKI-2 cells was 3.71 ± 0.42 µM. In addition, the “STAT3 (IC50, nM)” value at STAT3 [2] is “no inhibition”.

For the compound `CCS(=O)(=O)Cc1cnc(Oc2c(F)cc(F)cc2O/C=C\CC(=O)COc2ccc(/C=C/c3cc(OC)cc(OC)c3)cc2)c(-c2cc(C)c3c(=O)[nH]ccn23)c1` [BST-2], the IC50 at BRD4 [1] worked out at 4.64 ± 0.17 nM; at STAT3 [2] it was 27.2 ± 2.82 nM. The dissociation constant (Kd) was found to be 3.62 ± 0.25 nM on BRD4 [3] and 28.7 ± 3.71 nM at STAT3 [4].

On to `CCS(=O)(=O)Cc1cnc(Oc2c(F)cc(F)cc2OCC2CCC(COc3ccc(C=Cc4cc(OC)cc(OC)c4)cc3)N2)c(-c2cc(C)c3c(=O)[nH]ccn23)c1` (stereo not shown) [BST-5], for which the IC50 on BRD4 [1] was 10.1 ± 1.15 nM; at STAT3 [2], 17.8 ± 1.24 nM. The values for the dissociation constant Kd at BRD4 [3] and on STAT3 [4] were 9.72 ± 0.84 nM and 13.7 ± 0.98 nM, respectively.

Consider `CCS(=O)(=O)Cc1cnc(Oc2c(F)cc(F)cc2OCc2nc(COc3ccc(/C=C/c4cc(OC)cc(OC)c4)cc3)c[nH]2)c(-c2cc(C)c3c(=O)[nH]ccn23)c1` [BST-1], for which the IC50 at BRD4 [1] came to 15.7 ± 1.31 nM; on STAT3 [2], 20.8 ± 1.94 nM. The Kd turned out to be 12.3 ± 1.16 nM on BRD4 [3] and 16.4 ± 0.95 nM on STAT3 [4].
